In patent publication US20140000476A1, “HYDROPHOBIC AND LIPOPHOBIC COMPOSITION COMPRISING COMPOUNDS HAVING A BISPHOSPHONIC AND THIOL GROUP” (SURFACTIS TECHNOLOGIES, priority 2010, published 2014):

Assay: Contact angle on coated gold
Format: physicochemical
Conditions: molecule alone at 10^−3M, soaking 30 minutes
Protocol: Degrease the parts by washing in a solvent (acetone or IPA) under ultrasound for 5 minutes then dry the parts under a stream of hot air.
Deposit • Place the part or parts in a container with an adapted shape • Cover the part or parts with coating solution (thiol, BP or BP/thiol-PFPE mixture), • Incubate between 5 minutes and 360 minutes, • Eliminate the supernatant—remove the part, • The part is drip dried (centrifugation).
Dehydration—Rinsing • The part which received the deposit is placed in an oven at 120° C. for a period ranging from 6 to 15 h (only for rubies and silicon), • The part is brought back to room temperature then immersed in IPA under ultrasound for 2 minutes, • The part is dried under a stream of hot air. […]
The lipophobic effect was evaluated by measuring the contact angles of a test oil having surface tension of 33 mN/m on different surfaces.
According to the deposit procedure described in paragraph 3, the materials were treated by the mixture of the thiol molecule I.3. with the BP molecule II.1. dissolved in IPA. The contact angles were measured before and after treatment of the surface. […]
The properties of thiol and bisphosphonate molecules in isolation were measured on the surfaces of steel and gold-plated substrates using solutions at 10^−3 M and in isopropanol in accordance with the protocol described in example 3 above, with a soaking time of 5 minutes.

O=C(NCCS)C(F)(F)C(F)(F)C(F)(F)C(F)(F)C(F)(F)C(F)(F)C(F)(F)F [I.5]
contact angle of the gold-plated brass part with the test oil (solvent IPA): 67.6 ± 3.6°
contact angle of the gold-plated brass part with the test oil (solvent MMCC (Biosane T212)): 49.5 ± 2.5°
